Read-outs that look alike come from different tables or passages of the source.
Legend:
Format in all cases: cell-based
[1] = system: quail blastodermal cells / quail ESCs; assay: Derivation and self-renewal culture of quail ESCs
Procedure: We tested whether ESCs could be derived from other avian species in OT/2i. We isolated blastodermal cells from fertilized pheasant, duck and turkey eggs and cultured them in OT/2i. […] We examined whether blocking signaling pathways involved in cardiomyocyte differentiation from pluripotent stem cells could improve ESC self-renewal.
Freshly laid avian fertile eggs at EGK.X-XII stages were kept at 16° C. before extraction. To harvest cells from yolk, a filter paper-based method was applied. Filter paper with a hole at center was placed on top of the embryo. The outer edge of the filter paper was cut together with the vitelline membranes. Embryo were then released from yolk together with the filter paper and washed in PBS solution. Next, embryo was transferred into a 15 ml tube free of the paper ring and dissociated by pipetting inside N2B27 medium. Dissociated cells were cultured in tissue plates coated with irradiated mouse embryonic fibroblast (MEF) cells as feeder layer. Basal medium used for routine ESC maintenance was N2B27 medium composed of Dulbecco's Modified Eagle Medium/Nutrient Mixture F-12 (DMEM/F12):Neuralbasal (1:1) plus 0.5×N2, 0.5×B27 supplement and 20 μg/ml ovotransferrin with the addition of 1× penicillin-streptomycin. Avian ESC self-renewal was kept with 2.5 μM IWR-1, 2 μM Gö6983, 2 μM SB431542 plus chicken LIF (10 ng/ml for ESCs and 40 ng/ml for other avian ESCs). […]

[2] = system: chicken blastodermal cells / chicken ESCs; assay: Derivation and self-renewal culture of chicken ESCs from EGK.X blastodermal cells; conditions: for emergence of morphologically undifferentiated ESC colonies: EGK.X blastodermal cells from Rhode Island Red eggs, single supplement, FIG. 8A
Procedure: (§1) Freshly laid avian fertile eggs at EGK.X-XII stages were kept at 16° C. before extraction. To harvest cells from yolk, a filter paper-based method was applied. Filter paper with a hole at center was placed on top of the embryo. The outer edge of the filter paper was cut together with the vitelline membranes. Embryo were then released from yolk together with the filter paper and washed in PBS solution. Next, embryo was transferred into a 15 ml tube free of the paper ring and dissociated by pipetting inside N2B27 medium. Dissociated cells were cultured in tissue plates coated with irradiated mouse embryonic fibroblast (MEF) cells as feeder layer. Basal medium used for routine ESC maintenance was N2B27 medium composed of Dulbecco's Modified Eagle Medium/Nutrient Mixture F-12 (DMEM/F12):Neuralbasal (1:1) plus 0.5×N2, 0.5×B27 supplement and 20 μg/ml ovotransferrin with the addition of 1× penicillin-streptomycin. Avian ESC self-renewal was kept with 2.5 μM IWR-1, 2 μM Gö6983, 2 μM SB431542 plus chicken LIF (10 ng/ml for ESCs and 40 ng/ml for other avian ESCs). ESCs were cultured at 38° C. in 5% CO2 with daily medium change. To passage, TrypLE was used to incubate the cells for 5 min and neutralized with basal medium in triple amount. Cells were handled with 5 ml pipette all the time to avoid dissociation into singles. Cells can be frozen in Cellbanker 2 and stored at −150° C.

avian ESCs [3] = assay: Self-renewal of avian ESCs (species not specified)
Procedure: as §1

avian ESCs [4] = assay: Induction of primordial germ cells (PGCs) from avian ESCs; conditions: data not shown
From the text: Next, we assessed the potential of chicken ESCs to differentiate into the germ cell lineage. We generated EBs from chicken ESCs and examined the expression of germ cell markers including Dazl, Cvh, Cxcr4, Sycp3 and Stra8. […] To further investigate germ cell differentiation potential of chicken ESCs, we examined the expression of key primordial germ cell (PGC) marker, DAZL by immunofluorescence staining in both undifferentiated chicken ESCs and differentiated EBs. […] A subset of cells (1-3%) in day 3-4 EBs stained positive for DAZL (FIG. 6C). DAZL expression could also be detected inside goose ESC-derived EBs (FIG. 6C).

ostrich ESCs = assay: Derivation and self-renewal culture of ostrich ESCs
Procedure: as §1

Molecule: human LIF: human leukemia inhibitory factor
- quail ESC derivation and long-term self-renewal [1]: cannot be substituted

Molecule: human ortholog: human ortholog of ovotransferrin
- chicken ESC self-renewal [2]: could not be replaced

Molecule: O=C(Nc1cccc2cccnc12)c1ccc(N2C(=O)[C@@H]3[C@H](C2=O)[C@@H]2C=C[C@H]3C2)cc1 [IWR-1]
- emergence of morphologically undifferentiated ESC colonies [2]: Morphologically undifferentiated ESC colonies emerged

Molecule: NC(=O)c1ccc(-c2nc(-c3ccc4c(c3)OCO4)c(-c3ccccn3)[nH]2)cc1 [SB431542, 4-[4-(2H-1,3-Benzodioxol-5-yl)-5-(pyridin-2-yl)-1H-imidazol-2-yl]benzamide]
- chicken ESC self-renewal [2]: stabilize and proliferate chicken ESCs in long-term passages
- self-renewal of avian ESCs (avian ESCs [3]): does not promote the self-renewal

Molecule: COc1ccc2c(c1)c(C1=C(c3c[nH]c4ccccc34)C(=O)NC1=O)cn2CCCN(C)C [Gö6983]
- emergence of morphologically undifferentiated ESC colonies [2]: Morphologically undifferentiated ESC colonies emerged

B1: BMP4: a TGF-β superfamily ligand (protein, UniProt P12644 293-408, looked up)
Bone morphogenetic protein 4: SPKHHSQRARKKNKNCRRHSLYVDFSDVGWNDWIVAPPGYQAFYCHGDCPFPLADHLNSTNHAIVQTLVNSVNSSIPKACCVPTELSAISMLYLDEYDKVVLKNYQEMVVEGCGCR
- induction of PGCs (avian ESCs [4]): did not respond

B2: chicken LIF: chicken leukemia inhibitory factor, SEQ ID NO: 2; yeast-derived recombinant (protein, listed as Gallus gallus)
chain: MRLIPAGVVPFVALLLLQRRPVSGRALLGTSSACPTNGLCRANVLEQTRRQVALLNATAQDLFSLYLKCQGEPFSSESDRLCSPSGIFFPPFHVNRTTERKEVMVAMYKLFAFLNASLGNITRDQEELNPMAKELLNRLHNTTKTTRGLISNLTCLLCKHYNIFQVDVSYGESSKDKSAFKKKQQGCQVLRKYVQVIAQAARVLLPHLSPA
- chicken ESC self-renewal [2]: stabilize and proliferate chicken ESCs in long-term passages
- quail ESC derivation and long-term self-renewal [1]: is necessary
- ostrich ESC derivation, maintenance and differentiation (ostrich ESCs): induced differentiation
- ostrich ESC derivation, maintenance and differentiation (ostrich ESCs; listed as LIF): differentiating effect

Source: patent US20250163388A1, “METHODS FOR DERIVATION AND PROPAGATION OF AVIAN PLURIPOTENT STEM CELLS AND APPLICATIONS THEREOF” (UNIVERSITY OF SOUTHERN CALIFORNIA, priority 2022, published 2025)
